The record followed here is US20230212653A1, “METHODS AND MATERIALS FOR ASSESSING HOMOLOGOUS RECOMBINATION DEFICIENCY IN BREAST CANCER SUBTYPES” (Myriad Genetics, Inc., priority 2021, published 2023).

The test has as its system triple negative breast cancer (TNBC). The test is described as follows: Pathologic response of a neoadjuvant TNBC cohort treated with cisplatin (Example 6). In kind it is in vivo, human. Conditions: for PR = yes, % response / pCR = yes, % response: secondary analysis; for pCR = yes, % response: n=51. Here is the method: Analysis of a neoadjuvant TNBC cohort treated with cisplatin was examined relative to the relationship between all three HRD scores and response. All p values were from logistic regression models with response to cisplatin as the dependent variable.
HR Deficiency status was determined for 62 of the 70 samples (70 individual patients) received from a cisplatin cohort (8 had insufficient tumors for analysis). Of these, 31 (50%) were HR deficient, 22 (35%) were non-HR deficient, and 9 (15%) were undetermined. FIG. 15 provides a histogram showing the distribution of HRD scores in the cohort. Scores ≥42 were considered to have high HRD (see also, Example 5). […] Pathologic complete response (pCR), which is associated with long-term survival, was defined as a residual cancer burden (RBC) of 0 and observed in 11/59 (19%) samples. […] These overall response rates correlated with monotherapy expectations.
Statistical analyses followed a predefined Statistical Analysis Plan (SAP), which included primary, secondary, and BRCA wild-type subset analyses.

Molecules are shown by their SMILES.

For `N.N.[Cl][Pt][Cl]` [cisplatin], where the note is “BRCA Mutant”, the “PR = yes, % response” value was 5 (55.6%) and the “pCR = yes, % response” value was 3 (33.3%). Where the note is “BRCA Non-mutant”, the “PR = yes, % response” value is given as 13 (31.0%) and the “pCR = yes, % response” value is on record as 5 (11.9%). Also, where the note is “whole cisplatin cohort, 11/59 samples, pCR = residual cancer burden 0”, the “Pathologic complete response (pCR) rate” value is 19%. Further, the “Pathologic response (PR) rate” value (whole cisplatin cohort, 22/59 samples, PR = residual cancer burden 0 or 1) was 37%.
